Each structure is given as a SMILES string.

The results in this text go back to patent publication US6864266B2, “4-piperidinyl alkyl amine derivatives as muscarinic receptor antagonists” (Syntex (U.S.A.) LLC, priority 2001, dated 2005).

The target of test [1] is T1, recombinant human muscarinic receptor m3 (Homo sapiens, UniProt P20309).
T1 construct: expressed in transfected cells; host or cells: Chinese hamster ovary (CHO) cells, membrane preparation
The test is described as follows: Radioligand binding studies, [3H]N-methyl scopolamine, scintillation proximity assay. The note with it: CHO cell membranes, pIC50 converted to pKi by Cheng-Prusoff. Here is the method: (§1) The compounds of this invention are muscarinic receptor antagonists. The muscarinic receptor affinity of test compounds can be determined by an in vitro receptor binding assay which utilizes a cell membrane preparation from the Chinese hamster ovary cells expressing the recombinant human muscarinic receptors (M1-M5), and is described in more detail in Example 18.
(§2) The inhibitory activity of compounds of this invention in vitro was determined using a modification of the method described in Hegde, S. S. et al. (1997) Br. J. Pharmacol., 120, 1409-1418.
(§3) Cell membranes from Chinese hamster ovary cells expressing the recombinant human muscarinic receptors (m1-m5) were employed. The assays were conducted with the radioligand [^3H]N-methyl scopolamine(0.4 nM, specific activity 84 Ci·mmol^−1) in a final volume of 0.25 mL Tris-Krebs buffer. Non-specific binding was defined with 1 μM atropine. Assays were performed using scintillation proximity assay technology. Competition-displacement curves were generated using 10 concentrations of test compounds and were analyzed by iterative curve fitting to a four parameter logistic equation. pIC50 values (−log of the IC50) were converted to pKi values using the Cheng-Prusoff equation.

For test [2], the target named is T2, recombinant human muscarinic receptor m2 (Homo sapiens, UniProt P08172).
T2 construct: expressed in transfected cells; host or cells: Chinese hamster ovary (CHO) cells, membrane preparation
T2 sequence (P08172 1-466): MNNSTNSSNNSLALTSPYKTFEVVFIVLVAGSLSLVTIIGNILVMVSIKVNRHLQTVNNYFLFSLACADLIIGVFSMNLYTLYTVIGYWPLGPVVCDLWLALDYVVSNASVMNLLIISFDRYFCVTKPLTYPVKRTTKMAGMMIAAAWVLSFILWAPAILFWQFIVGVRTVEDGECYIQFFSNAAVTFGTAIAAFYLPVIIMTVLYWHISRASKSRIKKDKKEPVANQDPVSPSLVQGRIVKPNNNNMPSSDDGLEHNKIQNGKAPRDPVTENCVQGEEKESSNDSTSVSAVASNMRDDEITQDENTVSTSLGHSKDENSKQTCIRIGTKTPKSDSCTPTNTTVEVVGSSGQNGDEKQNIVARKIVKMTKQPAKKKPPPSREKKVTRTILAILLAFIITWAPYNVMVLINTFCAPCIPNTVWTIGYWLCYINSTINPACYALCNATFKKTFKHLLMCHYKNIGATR
Described as above. The note with it: CHO cell membranes, pIC50 converted to pKi by Cheng-Prusoff. Here is the method: as §1, §2, §3

T1 sequence (P20309 whole entry): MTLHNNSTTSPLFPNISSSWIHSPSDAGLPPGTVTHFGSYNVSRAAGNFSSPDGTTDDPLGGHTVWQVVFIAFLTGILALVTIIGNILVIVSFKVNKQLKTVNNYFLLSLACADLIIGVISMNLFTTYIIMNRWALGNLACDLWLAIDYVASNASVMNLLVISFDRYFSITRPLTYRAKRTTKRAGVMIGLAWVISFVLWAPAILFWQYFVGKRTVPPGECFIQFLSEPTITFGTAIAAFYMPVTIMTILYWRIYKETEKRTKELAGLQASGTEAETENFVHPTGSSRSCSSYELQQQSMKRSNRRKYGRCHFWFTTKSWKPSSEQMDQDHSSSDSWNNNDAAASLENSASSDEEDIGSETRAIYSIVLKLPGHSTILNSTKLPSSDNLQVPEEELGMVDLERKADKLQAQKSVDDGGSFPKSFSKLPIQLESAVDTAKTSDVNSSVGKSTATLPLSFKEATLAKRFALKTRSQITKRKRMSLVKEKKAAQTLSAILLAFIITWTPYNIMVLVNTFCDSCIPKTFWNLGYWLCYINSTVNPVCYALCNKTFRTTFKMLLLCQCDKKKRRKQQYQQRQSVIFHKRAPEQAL

In the case of `CCN(CC1CCN(C(=O)NC(C)C)CC1)C1CCc2ccc(NC(=O)c3ccc(F)cc3)cc2C1` (stereo not drawn) [Cpd 7, 4-({ethyl-[7-(4-fluoro-benzoylamino)-1,2,3,4-tetrahydro-naphthalen-2-yl]-amino}-methyl)-piperidine-1-carboxylic acid isopropylamide], the Ki in test [1] is 646 nM; in test [2] it was 10.5 nM.
In the case of `CCCN(CC1CCN(S(C)(=O)=O)CC1)C1CCc2ccc(-c3ccco3)cc2C1` (stereo not drawn) [Cpd 117, (7-furan-2-yl-1,2,3,4-tetrahydro-naphthalen-2-yl)-(1-methanesulfonyl-piperidin-4-ylmethyl)-propyl-amine], the Ki was 603 nM in test [1] and 141 nM in test [2].
For `CCCN(CC1CCN(C(=O)N2CCOCC2)CC1)C1CCc2ccc(N)cc2C1` (stereo not drawn) [Cpd 95, (4-{[(7-amino-1,2,3,4-tetrahydro-naphthalen-2-yl)-propyl-amino]-methyl}-piperidin-1-yl)-morpholin-4-yl-methanone], the results for the inhibition constant Ki in test [1] and in test [2] were 186 nM and 5.25 nM, respectively.
Regarding `CCN(CC1CCN(C(=O)N2CCOCC2)CC1)C1CCc2ccc(NC(=O)c3ccc(S(C)(=O)=O)cc3)cc2C1` (stereo not drawn) [Cpd 2, N-(7-{ethyl-[1-(morpholine-4-carbonyl)-piperidin-4-ylmethyl]-amino}-5,6,7,8-tetrahydro-naphthalen-2-yl)-4-methanesulfonyl-benzamide], the values for the Ki in test [1] and in test [2] were 1200 nM and 47.9 nM, respectively.
With `CCCN(CC1CCN(C(=O)N2CCN(C)CC2)CC1)C1CCc2ccc(OS(=O)(=O)c3c(C)noc3C)cc2C1` (stereo not drawn) [Cpd 115, 3,5-dimethyl-isoxazole-4-sulfonic acid 7-{[1-(4-methyl-piperazine-1-carbonyl)-piperidin-4-ylmethyl]-propyl-amino}-5,6,7,8-tetrahydro-naphthalen-2-yl ester], the Ki was 67.6 nM in test [1] and 21.9 nM in test [2].
As to `CCCN(CC1CCN(C(=O)C2CCNCC2)CC1)C1CCc2ccc(OS(=O)(=O)c3c(C)noc3C)cc2C1` (stereo not drawn) [Cpd 114, 3,5-dimethyl-isoxazole-4-sulfonic acid 7-{[1-(piperidine-4-carbonyl)-piperidin-4-ylmethyl]-propyl-amino}-5,6,7,8-tetrahydro-naphthalen-2-yl ester], the Ki was 51.3 nM in test [1] and 1.26 nM in test [2].
Consider `CCCN(CC1CCN(C(=O)NC)CC1)C1CCc2ccc(OC)cc2C1` (stereo not drawn) [Cpd 25, 4-{[(7-methoxy-1,2,3,4-tetrahydro-naphthalen-2-yl)-propyl-amino]-methyl}-piperidine-1-carboxylic acid methylamide], for which the Ki is 102 nM in test [1] and 25.1 nM in test [2].
For `CCCN(CC1CCN(S(C)(=O)=O)CC1)C1CCc2ccc(N)cc2C1` (stereo not drawn) [Cpd 85, N-(1-methanesulfonyl-piperidin-4-ylmethyl)-N-propyl-1,2,3,4-tetrahydro-naphthalene-2,7-diamine], in that order: 166 nM and 12.9 nM.
For the molecule `CCCN(CC1CCN(S(C)(=O)=O)CC1)C1CCc2ccc(OCC)cc2C1` (stereo not drawn) [Cpd 104, (7-ethoxy-1,2,3,4-tetrahydro-naphthalen-2-yl)-(1-methanesulfonyl-piperidin-4-ylmethyl)-propyl-amine], the inhibitory constant (Ki) in test [1] is 46.8 nM; in test [2] it was 16.2 nM.
For `CCCN(CC1CCN(C(=O)c2ccco2)CC1)C1CCc2cc(OC)c(OC)cc2C1` (stereo not drawn) [Cpd 70, (4-{[(6,7-dimethoxy-1,2,3,4-tetrahydro-naphthalen-2-yl)-propyl-amino]-methyl}-piperidin-1-yl)-furan-2-yl-methanone], in that order: 331 nM and 42.7 nM.
`CCCN(CC1CCN(C(=O)c2ccno2)CC1)C1CCc2ccc(OS(=O)(=O)C(F)(F)F)cc2C1` (stereo not drawn) [Cpd 107, trifluoro-methanesulfonic acid 7-{[1-(isoxazole-5-carbonyl)-piperidin-4-ylmethyl]-propyl-amino}-5,6,7,8-tetrahydro-naphthalen-2-yl ester]: the Ki was 148 nM in test [1] and 16.2 nM in test [2].
For the molecule `CCCN(CCC1CCN(C(=O)C2CCNCC2)CC1)[C@@H]1CCc2ccc(OC)cc2C1` [Cpd 116, (4-{2-[((R)-7-methoxy-1,2,3,4-tetrahydro-naphthalen-2-yl)-propyl-amino]-ethyl}-piperidin-1-yl)-piperidin-4-yl-methanone], the Ki in test [1] was 5130 nM; in test [2], 2.51 nM.
